Experimental data as given in PubChem BioAssay AID1963862 (Molecular Pharmacology Branch, DTP, NCI, 2024).

System: KRAS patient-derived spheroids with HUVEC/MSC, viability
Experiment: Anticancer human tumor 941728-121-R-J1-PDC patient-derived lung adenocarcinoma cell line growth inhibition [KRAS2]
Settings: for IC50: curve of first compound; for viability, T/C: stronger effect = lower value
Excerpt: Multicellular complex tumor spheroid response to RAS pathway inhibitors in combination with a targeted agents in patient-derived cell lines with oncogenic KRAS variants from multiple cancer types
A high-throughput screen of multi-cell type tumor spheroids was designed to identify active combinations of targeted small molecules and KRAS pathway inhibitors. Complex spheroids include a stromal component modeled by human endothelial cells (HUVEC) and fibroblasts modeled by human mesenchymal stem cells (MSCs). The concentration ranges selected for each drug and investigational agent were based upon clinically achievable concentrations if the clinical Cmax of the agent was known.
Compounds. The drugs and investigational agents: BI-3406 (NSC825286), BAY-293 (NSC824723), batoprotafib (TNO155; NSC825523), sotorasib (AMG 510; NSC818433), MRTX1257 (NSC819558), elimusertib (BAY 1895344; NSC800525), molibresib (GSK525762; NSC774829), temuterkib (LY3214996; NSC803410), venetoclax (NSC766270), alisertib (NSC759677), olaparib (NSC753686), talazoparib (NSC767125), erdafitinib (NSC781556), ipatasertib (NSC767898), cabozantinib (NSC761068), nintedanib (NSC756659), abemaciclib (NSC768073), docetaxel (NSC628503), trametinib (NSC758246), and sapanisertib (NSC764658) were obtained from the National Cancer Institute (NCI) Developmental Therapeutics Program Chemical Repository. The FDA-approved anticancer drug set is available from the Developmental Therapeutics Program. […] The stock solutions were prepared in dimethyl sulfoxide (DMSO, Sigma-Aldrich, St. Louis, MO, cat. D2650) at 800-fold the tested concentration and stored at -70 degrees C prior to their use. All drugs and investigational agents were tested over a range starting from a high concentration at or near the clinical Cmax and decreasing in half-log increments. If the clinical Cmax for an agent had not been determined, the highest concentration tested was 10 microM.
Cell Culture. All cells were maintained in an incubator at 37 degrees C and 5% CO2 with 95% humidity. The PDC lines were cultured according to standard operating procedures established by the NCI PDMR (https://pdmr.cancer.gov/sops/default.htm). Briefly, all PDCs were thawed and cultured in Matrigel-coated flasks prepared with a working solution of 1X Ham's F-12 nutrient mix, without supplementation (Invitrogen, Waltham, MA, cat. 11765054), 100 U/mL penicillin-streptomycin (Invitrogen, cat. 15140122), and 2.5% Matrigel (Corning Inc., Corning, NY, cat. 354248) for the first three passages. All PDCs were cultured in complete DMEM/F-12 media containing advanced DMEM/F-12 (Invitrogen, cat. 12634028), 4.9% defined fetal bovine serum, heat inactivated (HyClone Laboratories Inc., Logan, UT, cat. SH30070.03HI), 389 ng/mL hydrocortisone (Sigma-Aldrich, cat. H4001), 9.7 ng/mL human EGF recombinant protein (Invitrogen, cat. PHG0313), 23.4 microg/mL adenine (Sigma-Aldrich, cat. A2786), 97.3 U/mL penicillin-streptomycin (Invitrogen, cat. 15140122), 1.9 mM L-glutamine (Invitrogen, cat. 25030081), and 9.7 microM Y-27632 dihydrochloride (Tocris Bioscience, Bristol, United Kingdom, cat. 1254). The PDCs were cultured in complete DMEM/F12 media without 9.7 microM Y-27632 dihydrochloride for at least two passages prior to the screen. The established cell line HOP-62 was cultured in RPMI 1640 medium, HEPES (Invitrogen, cat. 22400105) with 10% defined fetal bovine serum (HyClone Laboratories Inc., cat. SH30070.03) and 2 mM L-glutamine (Invitrogen, cat. 25030081). The pooled donor HUVEC were cultured in endothelial cell growth medium 2 (PromoCell, Heidelberg, Germany, cat. C-22011) and the hMSC were cultured in mesenchymal stem cell growth medium 2 (PromoCell, cat. C-28009). For all experiments, HUVEC and hMSC were used at passages </=5, while the malignant cell lines were used at passages </=15. […]

[1] = second compound 0.1 µM, first compound 0.0316 µM
[2] = second compound 0.1 µM, first compound 0.1 µM
[3] = second compound 0.1 µM, first compound 0.316 µM
[4] = second compound 0.1 µM, first compound 1 µM
[5] = second compound 0.1 µM, first compound 3.16 µM
[6] = second compound 0.316 µM, first compound 0.0316 µM
[7] = second compound 0.316 µM, first compound 0.1 µM
[8] = second compound 0.316 µM, first compound 0.316 µM
[9] = second compound 0.316 µM, first compound 1 µM
[10] = second compound 0.316 µM, first compound 3.16 µM
[11] = second compound 1 µM, first compound 0.0316 µM
[12] = second compound 1 µM, first compound 0.1 µM
[13] = second compound 1 µM, first compound 0.316 µM
[14] = second compound 1 µM, first compound 1 µM
[15] = second compound 1 µM, first compound 3.16 µM
[16] = second compound 3.16 µM, first compound 0.0316 µM
[17] = second compound 3.16 µM, first compound 0.1 µM
[18] = second compound 3.16 µM, first compound 0.316 µM
[19] = second compound 3.16 µM, first compound 1 µM
[20] = second compound 3.16 µM, first compound 3.16 µM
[21] = second compound 10 µM, first compound 0.0316 µM
[22] = second compound 10 µM, first compound 0.1 µM
[23] = second compound 10 µM, first compound 0.316 µM
[24] = second compound 10 µM, first compound 1 µM
[25] = second compound 10 µM, first compound 3.16 µM
[26] = second compound 0.1 µM, first compound 10 µM
[27] = second compound 0.316 µM, first compound 10 µM
[28] = second compound 1 µM, first compound 10 µM
[29] = second compound 3.16 µM, first compound 10 µM
[30] = second compound 10 µM, first compound 10 µM
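Note: spheroids exposed to agents for seven days before readout.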

`CC1COCCN1c1cc(-c2ccnn2C)c2ccnc(-c3ccn[nH]3)c2n1` (stereo not given) + C=CC(=O)N1CCN(c2nc(=O)n(-c3c(C)ccnc3C(C)C)c3nc(-c4c(O)cccc4F)c(F)cc23)C(C)C1 was tested, and the IC50 (second compound 0.1 µM) was < 10 nM, the IC50 (second compound 0.316 µM) was < 10 nM and the IC50 (second compound 1 µM) was < 10 nM. The IC50 (second compound 3.16 µM) was < 10 nM, the IC50 (second compound 10 µM) was < 10 nM and the viability, T/C (second compound 0.1 µM, first compound 0.01 µM) was 23.9%. It also gave a viability, T/C [1] of 20.3%, a viability, T/C [2] of 18.5% and a viability, T/C [3] of 16.3%. The viability, T/C [4] was 13.1%, the viability, T/C [5] was 10.7% and the viability, T/C (second compound 0.316 µM, first compound 0.01 µM) was 23.6%. For the same compound, the viability, T/C [6] was 23.2%, the viability, T/C [7] was 19.2% and the viability, T/C [8] was 19.1%. The viability, T/C [9] was 13.5%, the viability, T/C [10] was 10.5% and the viability, T/C (second compound 1 µM, first compound 0.01 µM) was 25.1%. It also gave a viability, T/C [11] of 24.6%, a viability, T/C [12] of 21% and a viability, T/C [13] of 17.5%. It also gave a viability, T/C [14] of 14.1%, a viability, T/C [15] of 14% and a viability, T/C (second compound 3.16 µM, first compound 0.01 µM) of 26.2%. It also gave a viability, T/C [16] of 27.1%, a viability, T/C [17] of 24.2% and a viability, T/C [18] of 21.2%. The viability, T/C [19] was 20.1%, the viability, T/C [20] was 16.5% and the viability, T/C (second compound 10 µM, first compound 0.01 µM) was 33.3%. The viability, T/C [21] was 34.8%, the viability, T/C [22] was 31.9% and the viability, T/C [23] was 28.4%. It also gave a viability, T/C [24] of 25.4% and a viability, T/C [25] of 30.5%.
In the case of `CCNC(=O)CC1N=C(c2ccc(Cl)cc2)c2cc(OC)ccc2-n2c(C)nnc21` (stereo not given) + C=CC(=O)N1CCN(c2nc(=O)n(-c3c(C)ccnc3C(C)C)c3nc(-c4c(O)cccc4F)c(F)cc23)C(C)C1, the IC50 (second compound 0.1 µM) is reported as < 31.6 nM, the IC50 (second compound 0.316 µM) is reported as < 31.6 nM and the IC50 (second compound 1 µM) is reported as < 31.6 nM. For the same compound, the IC50 (second compound 3.16 µM) was < 31.6 nM, the IC50 (second compound 10 µM) was < 31.6 nM and the viability, T/C [1] was 25.4%. The viability, T/C [2] was 27%, the viability, T/C [3] was 21.2% and the viability, T/C [4] was 14.3%. The viability, T/C [5] was 11.7%, the viability, T/C [26] was 10.8% and the viability, T/C [6] was 27.4%. It also gave a viability, T/C [7] of 23.8%, a viability, T/C [8] of 20.4% and a viability, T/C [9] of 14.7%. It also gave a viability, T/C [10] of 13%, a viability, T/C [27] of 10.3% and a viability, T/C [11] of 28.9%. For the same compound, the viability, T/C [12] was 28.7%, the viability, T/C [13] was 21.7% and the viability, T/C [14] was 16.2%. For the same compound, the viability, T/C [15] was 14%, the viability, T/C [28] was 10.7% and the viability, T/C [16] was 30.4%. For the same compound, the viability, T/C [17] was 28%, the viability, T/C [18] was 22.5% and the viability, T/C [19] was 18.3%. For the same compound, the viability, T/C [20] was 11.6%, the viability, T/C [29] was 8.77% and the viability, T/C [21] was 34.1%. It also gave a viability, T/C [22] of 31.6%, a viability, T/C [23] of 23.4% and a viability, T/C [24] of 15.1%. For the same compound, the viability, T/C [25] was 11% and the viability, T/C [30] was 8.28%.
`Cn1nccc1Nc1nccc(-c2cc3c(s2)C(C)(C)N(CCN2CCOCC2)C3=O)n1` + C=CC(=O)N1CCN(c2nc(=O)n(-c3c(C)ccnc3C(C)C)c3nc(-c4c(O)cccc4F)c(F)cc23)C(C)C1 was tested, and the IC50 (second compound 0.1 µM) was < 31.6 nM, the IC50 (second compound 0.316 µM) was < 31.6 nM and the IC50 (second compound 1 µM) was < 31.6 nM. The IC50 (second compound 3.16 µM) was < 31.6 nM, the IC50 (second compound 10 µM) was < 31.6 nM and the viability, T/C [1] was 23.9%. The viability, T/C [2] was 23.4%, the viability, T/C [3] was 19% and the viability, T/C [4] was 19.6%. For the same compound, the viability, T/C [5] was 17.7%, the viability, T/C [26] was 20.7% and the viability, T/C [6] was 25.4%. For the same compound, the viability, T/C [7] was 24.4%, the viability, T/C [8] was 20.2% and the viability, T/C [9] was 18.9%. The viability, T/C [10] was 16.8%, the viability, T/C [27] was 21.4% and the viability, T/C [11] was 26.1%. For the same compound, the viability, T/C [12] was 27.4%, the viability, T/C [13] was 21.1% and the viability, T/C [14] was 19.9%. For the same compound, the viability, T/C [15] was 17.8%, the viability, T/C [28] was 29.4% and the viability, T/C [16] was 30.6%. The viability, T/C [17] was 31.4%, the viability, T/C [18] was 24.9% and the viability, T/C [19] was 23.6%. For the same compound, the viability, T/C [20] was 22.9%, the viability, T/C [29] was 32.3% and the viability, T/C [21] was 36.4%. For the same compound, the viability, T/C [22] was 38%, the viability, T/C [23] was 30.7% and the viability, T/C [24] was 30%. For the same compound, the viability, T/C [25] was 34.2% and the viability, T/C [30] was 57.5%.
